{"source": "patent US9617289B2", "about": "“RSV antiviral compounds” (JANSSEN R&D IRELAND, priority 2012, dated 2017)", "key": {"rgRSV224 virus": {"tested_on": "rgRSV224 virus", "test": "Antiviral activity: inhibition of rgRSV224 (GFP-expressing RSV) replication in HeLa cells", "format": "cell-based, respiratory syncytial virus", "settings": "for EC50: human respiratory syncytial virus, HeLa, 72 h, read-out: pEC50, rgRSV224 (MOI=0.02) in HeLa cells, GFP expression three days post-virus exposure (converted); for pEC50: rgRSV224 (MOI=0.02) in HeLa cells, GFP expression three days post-virus exposure", "summary_of_the_method": "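HeLa cells infected with GFP-expressing rgRSV224 at MOI 0.02 alongside 4-fold compound dilutions in duplicate (0.5% DMSO). Incubated 3 days at 37 °C; EC50 taken as 50% inhibition of GFP expression by laser microscopy. CC50 measured in parallel uninfected cells by ATP content after 3 days; SI = CC50/EC50.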"}}, "data": [{"smiles": "CS(=O)(=O)CCCn1c(CN2C(=O)C3(CN(CC(F)(F)F)C3)c3ccccc32)nc2cc(Cl)ccc21", "note": "[Compound 9, 1′-[[5-chloro-1-(3-methylsulfonylpropyl)benzimidazol-2-yl]methyl]-1-(2,2,2-trifluoroethyl)spiro[azetidine-3,3′-indoline]-2′-one]", "values": [{"measurement": "melting point", "value": 200.68, "unit": "°C"}, {"measurement": "EC50", "setting": "rgRSV224 virus", "value": 398, "unit": "pM"}]}, {"smiles": "CS(=O)(=O)CCCn1c(CN2C(=O)C3(CCOCC3)c3ccc(F)cc32)nc2cc(Cl)ccc21", "note": "[Compound 10, 1-((5-chloro-1-(3-(methylsulfonyl)propyl)-1H-benzo[d]-imidazol-2-yl)methyl)-6-fluoro-2′,3′,5′,6′-tetrahydro-spiro[indoline-3,4′-pyran]-2-one]", "values": [{"measurement": "melting point", "value": 207.14, "unit": "°C"}, {"measurement": "EC50", "setting": "rgRSV224 virus", "value": 2000, "unit": "pM"}]}, {"smiles": "CS(=O)(=O)CCCn1c(CN2C(=O)C3(CC(O)C3)c3ccccc32)nc2cc(Cl)ccc21", "note": "[Compound 11, (3S)-1′-({5-chloro-1-[3-(methylsulfonyl)propyl]-1H-benzimidazol-2-yl}methyl)-3-hydroxyspiro[cyclobutane-1,3′-indol]-2′(1′H)-one]", "values": [{"measurement": "melting point", "value": 232.91, "unit": "°C"}, {"measurement": "EC50", "setting": "rgRSV224 virus", "value": 398, "unit": "pM"}]}, {"smiles": "CS(=O)(=O)CCCn1c(CN2C(=O)C3(CC(O)C3)c3ccccc32)nc2cc(Cl)ccc21", "note": "[Compound 12, (3R)-1′-({5-chloro-1-[3-(methylsulfonyl)propyl]-1H-benzimidazol-2-yl}methyl)-3-hydroxyspiro[cyclobutane-1,3′-indol]-2′(1′H)-one]", "values": [{"measurement": "melting point", "value": 209.84, "unit": "°C"}, {"measurement": "pEC50", "setting": "rgRSV224 virus", "value": 9.3}]}, {"smiles": "CC(C)C(=O)N1CC2(C1)C(=O)N(Cc1nc3cc(Cl)ccc3n1CCCS(C)(=O)=O)c1ccccc12", "note": "[Compound 28, 1′-({5-chloro-1-[3-(methylsulfonyl)propyl]-1H-benzimidazol-2-yl}methyl)-1-(2-methylpropanoyl)-spiro[azetidine-3,3′-indol]-2′(1′H)-one]", "values": [{"measurement": "melting point", "value": 133.12, "unit": "°C"}, {"measurement": "EC50", "setting": "rgRSV224 virus", "value": "< 158", "unit": "pM"}]}, {"smiles": "CS(=O)(=O)CCCn1c(CN2C(=O)C3(CN(S(=O)(=O)C4CC4)C3)c3ccccc32)nc2cc(Cl)ccc21", "note": "[Compound 29, 1′-({5-chloro-1-[3-(methylsulfonyl)propyl]-1H-benzimidazol-2-yl}methyl)-1-(cyclopropylsulfonyl)-spiro[azetidine-3,3′-indol]-2′(1′H)-one]", "values": [{"measurement": "melting point", "value": 191.15, "unit": "°C"}, {"measurement": "EC50", "setting": "rgRSV224 virus", "value": "< 158", "unit": "pM"}]}, {"smiles": "CC(=O)N1CC2(C1)C(=O)N(Cc1nc3cc(Cl)ccc3n1CCCS(C)(=O)=O)c1ccccc12", "note": "[Compound 30, 1-acetyl-1′-({5-chloro-1-[3-(methylsulfonyl)propyl]-1H-benzimidazol-2-yl}methyl)spiro[azetidine-3,3′-indol]-2′(1′H)-one]", "values": [{"measurement": "melting point", "value": 221.24, "unit": "°C"}, {"measurement": "EC50", "setting": "rgRSV224 virus", "value": 251, "unit": "pM"}]}, {"smiles": "CS(=O)(=O)CCCn1c(CN2C(=O)C3(CN(C(=O)C(F)(F)F)C3)c3ccccc32)nc2cc(Cl)ccc21", "note": "[Compound 31, 1-({5-chloro-1-[3-(methylsulfonyl)propyl]-1H-benzimidazol-2-yl}methyl)-1-(trifluoroacetyl)spiro-[azetidine-3,3′-indol]-2′(1′H)-one]", "values": [{"measurement": "melting point", "value": 249.58, "unit": "°C"}, {"measurement": "EC50", "setting": "rgRSV224 virus", "value": 3160, "unit": "pM"}]}, {"smiles": "CC(=O)N1CCC2(CC1)C(=O)N(Cc1nc3cc(Cl)ccc3n1CCCS(C)(=O)=O)c1ccccc12", "note": "[Compound 32, 1′-acetyl-1-({5-chloro-1-[3-(methylsulfonyl)propyl]-1H-benzimidazol-2-yl}methyl)spiro[indole-3,4′-piperidin]-2(1H)-one]", "values": [{"measurement": "melting point", "value": 247.98, "unit": "°C"}, {"measurement": "EC50", "setting": "rgRSV224 virus", "value": 631, "unit": "pM"}]}, {"smiles": "CS(=O)(=O)CCCn1c(CN2C(=O)C3(CCN(S(=O)(=O)c4ccc(F)cc4)CC3)c3ccccc32)nc2cc(Cl)ccc21", "note": "[Compound 34, 1-({5-chloro-1-[3-(methylsulfonyl)propyl]-1H-benzimidazol-2-yl}methyl)-1′-[(4-fluorophenyl)-sulfonyl]spiro[indole-3,4′-piperidin]-2(1H)-one]", "values": [{"measurement": "melting point", "value": 183.97, "unit": "°C"}, {"measurement": "EC50", "setting": "rgRSV224 virus", "value": 1260, "unit": "pM"}]}, {"smiles": "CS(=O)(=O)CCCn1c(CN2C(=O)C3(CCN(S(=O)(=O)C4CC4)CC3)c3ccccc32)nc2cc(Cl)ccc21", "note": "[Compound 35, 1-({5-chloro-1-[3-(methylsulfonyl)propyl]-1H-benzimidazol-2-yl}methyl)-1′-(cyclopropylsulfonyl)-spiro[indole-3,4′-piperidin]-2(1H)-one]", "values": [{"measurement": "melting point", "value": 194.85, "unit": "°C"}, {"measurement": "EC50", "setting": "rgRSV224 virus", "value": 794, "unit": "pM"}]}, {"smiles": "COc1ccc(S(=O)(=O)N2CCC3(CC2)C(=O)N(Cc2nc4cc(Cl)ccc4n2CCCS(C)(=O)=O)c2ccccc23)cc1", "note": "[Compound 36, 1-({5-chloro-1-[3-(methylsulfonyl)propyl]-1H-benzimidazol-2-yl}methyl)-1′-[(4-methoxyphenyl)-sulfonyl]spiro[indole-3,4′-piperidin]-2(1H)-one]", "values": [{"measurement": "melting point", "value": 237.33, "unit": "°C"}, {"measurement": "EC50", "setting": "rgRSV224 virus", "value": 251, "unit": "pM"}]}, {"smiles": "COC(=O)N1CCC2(CC1)C(=O)N(Cc1cc3cc(Cl)ccc3n1CCCS(C)(=O)=O)c1cnccc12", "note": "[Compound 55]", "values": [{"measurement": "melting point", "value": 234.28, "unit": "°C"}, {"measurement": "EC50", "setting": "rgRSV224 virus", "value": 50.1, "unit": "pM"}]}, {"smiles": "CC(=O)N1CCC2(CC1)C(=O)N(Cc1cc3cc(Cl)ccc3n1CCCS(C)(=O)=O)c1cnccc12", "note": "[Compound 56, 1-acetyl-1′-({5-chloro-1-[3-(methylsulfonyl)propyl]-1H-indol-2-yl}methyl)spiro[piperidine-4,3′-pyrrolo[2,3-c]pyridin]-2′(1′H)-one]", "values": [{"measurement": "melting point", "value": 258.32, "unit": "°C"}, {"measurement": "EC50", "setting": "rgRSV224 virus", "value": 316, "unit": "pM"}]}, {"smiles": "CC(=O)N1CC2(C1)C(=O)N(Cc1cc3cc(Cl)ccc3n1CCCC#N)c1ccccc12", "note": "[Compound 62, 4-{2-[(1-acetyl-2′-oxospiro[azetidine-3,3′-indol]-1′(2′H)-yl)-methyl]-5-chloro-1H-indol-l-yl}butanenitrile]", "values": [{"measurement": "melting point", "value": 195.25, "unit": "°C"}, {"measurement": "EC50", "setting": "rgRSV224 virus", "value": 1000, "unit": "pM"}]}, {"smiles": "CC(C)(C)OC(=O)N1CC2(C1)C(=O)N(Cc1nc3cc(Cl)ccc3n1CCCC#N)c1ccccc12", "note": "[Compound 70, tert-butyl 1′-((5-chloro-1-(3-cyanopropyl)-1H-benzo[d]-imidazol-2-yl)methyl)-2′-oxospiro[azetidine-3,3′-indoline]-1-carboxylate]", "values": [{"measurement": "melting point", "value": 144.1, "unit": "°C"}, {"measurement": "EC50", "setting": "rgRSV224 virus", "value": "< 158", "unit": "pM"}]}, {"smiles": "O=C1N(Cc2nc3cc(Cl)ccc3n2CCCC(F)(F)F)c2cc(F)ccc2C12CCOCC2", "note": "[Compound 71, 1-((5-chloro-1-(4,4,4-trifluorobutyl)-1H-benzo[d]imidazol-2-yl)methyl)-6-fluoro-2′,3′,5′,6′-tetrahydrospiro[indoline-3,4′-pyran]-2-one]", "values": [{"measurement": "melting point", "value": 172.7, "unit": "°C"}, {"measurement": "EC50", "setting": "rgRSV224 virus", "value": 3160, "unit": "pM"}]}, {"smiles": "CC(=O)N1CC2(C1)C(=O)N(Cc1nc3cc(Cl)ccc3n1CCCS(C)(=O)=O)c1ccccc12", "note": "[Compound 72, 1-acetyl-1′-((5-chloro-1-(3-(methylsulfonyl)propyl)-1H-benzo[d]imidazol-2-yl)methyl)spiro[azetidine-3,3′-indolin]-2′-one]", "values": [{"measurement": "melting point", "value": 226.51, "unit": "°C"}, {"measurement": "pEC50", "setting": "rgRSV224 virus", "value": 9.6}]}, {"smiles": "CC(C)(O)C(=O)N1CC2(C1)C(=O)N(Cc1cc3cc(Cl)ccc3n1CCCC#N)c1ccccc12", "note": "[Compound 73, 4-(5-chloro-2-((1-(2-hydroxy-2-methylpropanoyl)-2′-oxospiro[azetidine-3,3′-indolin]-1′-yl)methyl)-1H-indol-1-yl)butanenitrile]", "values": [{"measurement": "melting point", "value": 89.86, "unit": "°C"}, {"measurement": "EC50", "setting": "rgRSV224 virus", "value": 501, "unit": "pM"}]}, {"smiles": "O=C1N(Cc2nc3nc(Cl)ccc3n2CCCC(F)(F)F)c2cnccc2C12CCOCC2", "note": "[Compound 75, 1′-((5-chloro-1-(4,4,4-trifluorobutyl)-1H-imidazo[4,5-b]-pyridin-2-yl)methyl)-2,3,5,6-tetrahydrospiro[pyran-4,3′-pyrrolo[2,3-c]pyridin]-2′(1′H)-one]", "values": [{"measurement": "melting point", "value": 188.67, "unit": "°C"}, {"measurement": "pEC50", "setting": "rgRSV224 virus", "value": 8.3}]}, {"smiles": "N#CCCCn1c(CN2C(=O)C3(CCN(C(=O)OC4COC4)CC3)c3ccncc32)cc2cc(Cl)ccc21", "note": "[Compound 80, oxetan-3-yl 1′-((5-chloro-1-(3-cyanopropyl)-1H-indol-2-yl)-methyl)-2′-oxo-1′,2′-dihydro[spiropiperidine-4,3′-pyrrolo-[2,3-c]pyridine]-1-carboxylate]", "values": [{"measurement": "melting point", "value": 208.24, "unit": "°C"}, {"measurement": "EC50", "setting": "rgRSV224 virus", "value": "< 158", "unit": "pM"}]}, {"smiles": "N#CCCCn1c(CN2C(=O)C3(CCN(S(=O)(=O)C4CC4)CC3)c3ccncc32)cc2cc(Cl)ccc21", "note": "[Compound 81, 4-(5-chloro-2-((1-(cyclopropylsulfonyl)-2′-oxospiro-[piperidine-4,3′-pyrrolo[2,3-c]pyridin]-1′(2′H)-yl)methyl)-1H-indol-1-yl)butanenitrile]", "values": [{"measurement": "melting point", "value": 93.04, "unit": "°C"}, {"measurement": "EC50", "setting": "rgRSV224 virus", "value": "< 158", "unit": "pM"}]}, {"smiles": "N#CCCCn1c(CN2C(=O)C3(CCN(C(=O)OC4COC4)CC3)c3ccncc32)nc2cc(Cl)ccc21", "note": "[Compound 82, oxetan-3-yl 1′-((5-chloro-1-(3-cyanopropyl)-1H-benzo[d]-imidazol-2-yl)methyl)-2′-oxo-1′,2′-dihydrospiro[piperidine-4,3′-pyrrolo[2,3-c]pyridine]-1-carboxylate]", "values": [{"measurement": "melting point", "value": 203.41, "unit": "°C"}, {"measurement": "EC50", "setting": "rgRSV224 virus", "value": "< 158", "unit": "pM"}]}, {"smiles": "CC(=O)N1CCC2(CC1)C(=O)N(Cc1nc3cc(Cl)ccc3n1CCCC#N)c1cnccc12", "note": "[Compound 83, 4-(2-((1-acetyl-2′-oxospiro[piperidine-4,3′-pyrrolo[2,3-c]-pyridin]-1′(2′H)-yl)methyl)-5-chloro-1H-benzo[d]imidazol-1-yl)butanenitrile]", "values": [{"measurement": "melting point", "value": 223.53, "unit": "°C"}, {"measurement": "EC50", "setting": "rgRSV224 virus", "value": "< 158", "unit": "pM"}]}, {"smiles": "CS(=O)(=O)CCCn1c(CN2C(=O)C3(CCN(S(=O)(=O)C4CC4)CC3)c3ccncc32)nc2cc(Cl)ccc21", "note": "[Compound 85, 1′-((5-chloro-1-(3-(methylsulfonyl)propyl)-1H-benzo[d]-imidazol-2-yl)methyl)-1-(cyclopropylsulfonyl)spiro-[piperidine-4,3′-pyrrolo[2,3-c]pyridin]-2′(1′H)-one]", "values": [{"measurement": "melting point", "value": 150.42, "unit": "°C"}, {"measurement": "EC50", "setting": "rgRSV224 virus", "value": "< 158", "unit": "pM"}]}]}
